Source: article PMC6318274, “Lattice engineering enables definition of molecular features allowing for potent small-molecule inhibition of HIV-1 entry” (Nature Communications, 2019)
Several values for one entry are separate records, joined by “and”; a condition that tells them apart may be missing. Equal values may be shown once. Read-outs that look alike come from different tables or passages of the source.

Experiments:
[1] = system: HIV-1 Env-pseudoviruses (30-strain panel); assay: Neutralization assay, cross-clade 30-strain panel (Env-pseudoviruses, TZM-bl target cells); type: cell-based
Protocol: Neutralization was measured using single-round-of-infection HIV-1 Env-pseudoviruses and TZM-bl target cells (ARP Cat No. #8129)[44],[45]. Compounds were prepared at 400 μM with 4% DMSO (dimethyl sulfoxide) in PBS (phosphate-buffered saline) and diluted 20 times as the starting concentration for serial dilution in the neutralization assays. […] After incubation at 37 °C for 2 days, infection of target cells was measured by luciferase activity. Neutralization curves were fit by nonlinear regression using a five-parameter hill slope equation[45].

[2] = target: BG505 DS-SOSIP.664 Env trimer (Human immunodeficiency virus 1, UniProt Q2N0S5, A430C/A498C/I200C/I556P/T330N/T602C, form not given); type: binding, HIV-1; conditions: ITC, 37 °C
[3] = Human immunodeficiency virus 1, TZM-bl, 242-14 (Clade AG), read-out: IC50
[4] = Human immunodeficiency virus 1, TZM-bl, 247-23 (Clade D), read-out: IC50
[5] = Human immunodeficiency virus 1, TZM-bl, 0330.v4.c3 (Clade A), read-out: IC50
[6] = Human immunodeficiency virus 1, TZM-bl, 426c (Clade C), read-out: IC50
[7] = Human immunodeficiency virus 1, TZM-bl, 7165.18 (Clade B), read-out: IC50
[8] = Human immunodeficiency virus 1, TZM-bl, B41 (Clade B), read-out: IC50
[9] = Human immunodeficiency virus 1, TZM-bl, BJOX028000.10.3 (Clade AE), read-out: IC50
[10] = Human immunodeficiency virus 1, TZM-bl, BL01.DG (Clade B), read-out: IC50
[11] = Human immunodeficiency virus 1, TZM-bl, C4118.09 (Clade AE), read-out: IC50
[12] = Human immunodeficiency virus 1, TZM-bl, CAP210.E8 (Clade C), read-out: IC50
[13] = Human immunodeficiency virus 1, TZM-bl, CH119.10 (Clade BC), read-out: IC50
[14] = Human immunodeficiency virus 1, TZM-bl, CNE10 (Clade B), read-out: IC50
[15] = Human immunodeficiency virus 1, TZM-bl, CNE20 (Clade BC), read-out: IC50
[16] = Human immunodeficiency virus 1, TZM-bl, CNE56 (Clade AE), read-out: IC50
[17] = Human immunodeficiency virus 1, TZM-bl, DJ263.8 (Clade AG), read-out: IC50
[18] = Human immunodeficiency virus 1, TZM-bl, DU156.12 (Clade C), read-out: IC50
[19] = Human immunodeficiency virus 1, TZM-bl, Geomean, 30-strain panel, read-out: Geometric mean IC50
[20] = Human immunodeficiency virus 1, TZM-bl, KER2008.12 (Clade A), read-out: IC50
[21] = Human immunodeficiency virus 1, TZM-bl, MB201.A1 (Clade A), read-out: IC50
[22] = Human immunodeficiency virus 1, TZM-bl, NKU3006.ec1 (Clade D), read-out: IC50
[23] = Human immunodeficiency virus 1, TZM-bl, P0402.c2.11 (Clade G), read-out: IC50
[24] = Human immunodeficiency virus 1, TZM-bl, PVO.04 (Clade B), read-out: IC50
[25] = Human immunodeficiency virus 1, TZM-bl, R3265.c6 (Clade AE), read-out: IC50
[26] = Human immunodeficiency virus 1, TZM-bl, REJO.67 (Clade B), read-out: IC50
[27] = Human immunodeficiency virus 1, TZM-bl, T253-11 (Clade AG), read-out: IC50
[28] = Human immunodeficiency virus 1, TZM-bl, T280-5 (Clade AG), read-out: IC50
[29] = Human immunodeficiency virus 1, TZM-bl, ZM106.9 (Clade C), read-out: IC50

Work on `COc1cnc(-n2cnc(C)n2)c2[nH]cc(C(=O)C(=O)N3CCN(C(=O)c4ccccc4)CC3)c12` [BMS-626529] yielded an IC50 ([1]; Geomean, 30-strain panel, read-out: Geometric mean IC50) of about 40 nM, an IC50 [1, 3] of 24 nM and an IC50 [1, 4] of 9 nM. For the same molecule, the IC50 [1, 5] was 185 nM, the IC50 [1, 6] was 5 nM and the IC50 [1, 7] was 20 nM. For the same molecule, the IC50 [1, 8] was 0.7 nM, the IC50 [1, 9] was over 20000 nM and the IC50 [1, 10] was 12400 nM. It also gave an IC50 [1, 11] of 6210 nM, an IC50 [1, 12] of 66 nM and an IC50 [1, 13] of 5 nM. For the same molecule, the IC50 [1, 14] was 2 nM, the IC50 [1, 15] was 878 nM and the IC50 [1, 16] was over 20000 nM. It also gave an IC50 [1, 17] of 12 nM, an IC50 [1, 18] of 2 nM and an IC50 [1, 19] of over 40 nM. It also gave an IC50 [1, 20] of 758 nM, an IC50 [1, 21] of 474 nM and an IC50 [1, 22] of 2 nM. For the same molecule, the IC50 [1, 23] was 17 nM, the IC50 [1, 24] was 0.9 nM and the IC50 [1, 25] was 5840 nM. For the same molecule, the IC50 [1, 26] was 205 nM, the IC50 [1, 27] was 0.5 nM and the IC50 [1, 28] was 3 nM. The IC50 [1, 29] was 16 nM, the IC50 ([1]; Human immunodeficiency virus 1, TZM-bl, read-out: IC50) was 5 nM and the “-TΔS” value [2] was “+7.7 kcal/mol”. It also gave a ΔG [2] of -9.1 kcal/mol and a ΔH [2] of -16.8 kcal/mol.
With `COc1cnc(-c2csc(C(=O)NCCO)n2)c2[nH]cc(C(=O)C(=O)N3CCC(=C(C#N)c4ccccc4)CC3)c12` [BMS-818251] the IC50 ([1]; Human immunodeficiency virus 1, TZM-bl) was < 0.3 nM and < 0.0002 µg/mL, the IC50 [1, 3] was under 0.3 nM and the IC50 ([1]; Human immunodeficiency virus 1, TZM-bl, 242-14.SG3 (Clade AG), read-out: IC50) was under 0.2 ng/mL. The IC50 [1, 4] was under 0.3 nM, the IC50 ([1]; Human immunodeficiency virus 1, TZM-bl, 247-23.SG3 (Clade D), read-out: IC50) was under 0.2 ng/mL and the IC50 [1, 5] was 4 nM. It also gave an IC50 ([1]; Human immunodeficiency virus 1, TZM-bl, 0330.v4.c3.SG3 (Clade A), read-out: IC50) of 2.3 ng/mL, an IC50 [1, 6] of 0.4 nM and an IC50 ([1]; Human immunodeficiency virus 1, TZM-bl, 426c.SG3 (Clade C), read-out: IC50) of under 0.2 ng/mL. The IC50 [1, 7] was 13 nM, the IC50 ([1]; Human immunodeficiency virus 1, TZM-bl, 7165.18.SG3 (Clade B), read-out: IC50) was 7.4 ng/mL and the IC50 ([1]; Human immunodeficiency virus 1, TZM-bl, A03349M1.vrc4a.SG3 (Clade D), read-out: IC50) was under 0.2 ng/mL. For the same molecule, the IC50 [1, 8] was under 0.3 nM, the IC50 ([1]; Human immunodeficiency virus 1, TZM-bl, B41.SG3 (Clade B), read-out: IC50) was under 0.2 ng/mL and the IC50 [1, 9] was 733 nM. It also gave an IC50 ([1]; Human immunodeficiency virus 1, TZM-bl, BJOX028000.10.3.SG3 (Clade AE), read-out: IC50) of 418 ng/mL, an IC50 [1, 10] of 533 nM and an IC50 ([1]; Human immunodeficiency virus 1, TZM-bl, BL01.DG.SG3 (Clade B), read-out: IC50) of 304 ng/mL. It also gave an IC50 [1, 11] of 89 nM, an IC50 ([1]; Human immunodeficiency virus 1, TZM-bl, C4118.09.SG3 (Clade AE), read-out: IC50) of 50.7 ng/mL and an IC50 [1, 12] of 22 nM. For the same molecule, the IC50 ([1]; Human immunodeficiency virus 1, TZM-bl, CAP210.E8.SG3 (Clade C), read-out: IC50) was 12.5 ng/mL, the IC50 [1, 13] was under 0.3 nM and the IC50 ([1]; Human immunodeficiency virus 1, TZM-bl, CH119.10.SG3 (Clade BC), read-out: IC50) was under 0.2 ng/mL. For the same molecule, the IC50 [1, 14] was under 0.3 nM, the IC50 ([1]; Human immunodeficiency virus 1, TZM-bl, CNE10.SG3 (Clade B), read-out: IC50) was under 0.2 ng/mL and the IC50 [1, 15] was 6 nM. For the same molecule, the IC50 ([1]; Human immunodeficiency virus 1, TZM-bl, CNE20.SG3 (Clade BC), read-out: IC50) was 3.4 ng/mL, the IC50 [1, 16] was 471 nM and the IC50 ([1]; Human immunodeficiency virus 1, TZM-bl, CNE56.SG3 (Clade AE), read-out: IC50) was 268 ng/mL. For the same molecule, the IC50 [1, 17] was under 0.3 nM, the IC50 ([1]; Human immunodeficiency virus 1, TZM-bl, DJ263.8.SG3 (Clade AG), read-out: IC50) was under 0.2 ng/mL and the IC50 [1, 18] was under 0.3 nM. It also gave an IC50 ([1]; Human immunodeficiency virus 1, TZM-bl, DU156.12.SG3 (Clade C), read-out: IC50) of under 0.2 ng/mL, an IC50 [1, 19] of about 2 nM and an IC50 [1, 20] of 11 nM. For the same molecule, the IC50 ([1]; Human immunodeficiency virus 1, TZM-bl, KER2008.12.SG3 (Clade A), read-out: IC50) was 6.3 ng/mL, the IC50 [1, 21] was 14 nM and the IC50 ([1]; Human immunodeficiency virus 1, TZM-bl, MB201.A1.SG3 (Clade A), read-out: IC50) was 8 ng/mL. It also gave an IC50 [1, 22] of under 0.3 nM, an IC50 ([1]; Human immunodeficiency virus 1, TZM-bl, NKU3006.ec1.SG3 (Clade D), read-out: IC50) of under 0.2 ng/mL and an IC50 [1, 23] of under 0.3 nM. For the same molecule, the IC50 ([1]; Human immunodeficiency virus 1, TZM-bl, P0402.c2.11.SG3 (Clade G), read-out: IC50) was under 0.2 ng/mL, the IC50 [1, 24] was under 0.3 nM and the IC50 ([1]; Human immunodeficiency virus 1, TZM-bl, PVO.04.SG3 (Clade B), read-out: IC50) was under 0.2 ng/mL. For the same molecule, the IC50 [1, 25] was 32 nM, the IC50 ([1]; Human immunodeficiency virus 1, TZM-bl, R3265.c6.SG3 (Clade AE), read-out: IC50) was 18.2 ng/mL and the IC50 [1, 26] was 450 nM. For the same molecule, the IC50 ([1]; Human immunodeficiency virus 1, TZM-bl, REJO.67.SG3 (Clade B), read-out: IC50) was 256 ng/mL, the IC50 [1, 27] was under 0.3 nM and the IC50 ([1]; Human immunodeficiency virus 1, TZM-bl, T253-11.SG3 (Clade AG), read-out: IC50) was under 0.2 ng/mL. The IC50 [1, 28] was under 0.3 nM, the IC50 ([1]; Human immunodeficiency virus 1, TZM-bl, T280-5.SG3 (Clade AG), read-out: IC50) was under 0.2 ng/mL and the IC50 [1, 29] was 0.5 nM. The IC50 ([1]; Human immunodeficiency virus 1, TZM-bl, ZM106.9.SG3 (Clade C), read-out: IC50) was 0.3 ng/mL, the IC50 ([1]; Human immunodeficiency virus 1, TZM-bl, geomean, 30-strain panel, read-out: Geometric mean IC50) was under 0.2 ng/mL and the IC50 ([1]; Human immunodeficiency virus 1, TZM-bl, read-out: Geometric mean IC50) was under 2 nM. The “-TΔS” value [2] was “+4.5 kcal/mol”, the ΔG [2] was -10.4 kcal/mol and the ΔH [2] was -14.9 kcal/mol. For the same molecule, the Kd ([2]; read-out: Kd (affinity)) was 47 nM.
